Experiment [1] relates to V9m reporter cell line expressing a 15-PGDH luciferase fusion construct. Nature of the experiment: 15-PGDH-luciferase fusion gene reporter induction, V9m cell line. Format: cell-based. The conditions noted are these: […]; for percent reporter induction over basal at […]: read-out: V9M-SC3 Reporter activity % ([…]), Table 18, read-out: V9M-SC3 Reporter activity % (7.5 μM). The text has this: (§1) These cell lines are Vaco-9m (V9m), LS174T, Vaco503 (V503). […] Value of 1.0 on the Y-axis is the basal level of reporter activity in cells treated with drug free DMSO vehicle.
(§2) This Example provides data on a group of structural analogues of SW033291. Data provided includes level of induction of a 15-PGDH-luciferase fusion gene reporter, recorded as % increased luciferase activity over basal level, in three colon cancer cell lines, V9m, V503, and LS174T, engineered to contain the reporter, and treated with either 2.5 uM or 7.5 uM compound (i.e., Values are recorded on a scale where 100 indicates of doubling of luciferase activity over baseline level).
(§3) FIGS. 27(A-C) show graphs that show the level of compound's activity in inducing the 15-PGDH-luciferase fusion reporter in three different test cell line backgrounds, V9m, LS174T, and V503. Each compound was tested at two concentrations, 2.5 uM, and 7.5 uM. Y-axis is luciferase activity.
(§4) Data provided include level of induction of a 15-PGDH-luciferase fusion gene reporter, recorded as % induction of luciferase activity over basal level, in three colon cancer cell lines, V9m, V503, and LS174T, engineered to contain the reporter, and treated with either 2.5 uM or 7.5 uM compound. […] Additionally, for selected compounds is recorded the decrease in PGE2 levels in the media of compound treated A549 cells that have been stimulated with IL-1 beta. Additionally recorded for selected compounds is the effect on A549 cell viability as measured by a CellTiter-Glo assay, and the effect of compounds on A549 cell colony formation.

Experiment [2] relates to Vaco503 reporter cell line expressing a 15-PGDH luciferase fusion construct. Nature of the experiment: 15-PGDH-luciferase fusion gene reporter induction, Vaco503 (V503) cell line. The experiment is classed as cell-based. Conditions: […].
Source text: as §1, §2, §3, §4

Experiment [3] relates to LS174T reporter cell line expressing a 15-PGDH luciferase fusion construct. As to the kind of experiment: 15-PGDH-luciferase fusion gene reporter induction, LS174T cell line. The conditions noted are these: Homo sapiens. Format: cell-based.
Source text: as §1, §2, §3, §4

Experiment [4] has as its target recombinant 15-PGDH protein (Homo sapiens (Human), UniProt P15428). Nature of the experiment: Inhibition of enzymatic activity of recombinant 15-PGDH in vitro.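 Further: activity of recombinant human 15-PGDH assayed in vitro using PGE2 as the substrate.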 Format: biochemical.
Experiment [5] has as its system 15-PGDH-luciferase fusion reporter in V9m, LS174T and V503 cell lines. As to the kind of experiment: 15-PGDH-luciferase fusion gene reporter induction in three colon cancer cell lines (stated jointly). The experiment is classed as cell-based.
[6] abbreviates: read-out: V9M-SC3 Reporter activity ([…]) (%), Table 18, read-out: V9M-SC3 Reporter activity (2.5 μM) (%).
The mark [7] stands for this setting: read-out: V503-3H9-7 reporter activity, % ([…]), Table 18, read-out: V503-3H9-7 reporter activity, % (2.5 μM).
Setting [8] is: read-out: V503-3H9-7 reporter activity, % ([…]), Table 18, read-out: V503-3H9-7 reporter activity, % (7.5 μM).
Where [9] appears, read: read-out: Ls174T-SC1 reporter activity, % ([…]), Table 18, […], read-out: Ls174T-SC1 reporter activity, % (2.5μM).
The mark [10] stands for this setting: read-out: Ls174T-SC1 reporter activity, % ([…]), Table 18, […], read-out: Ls174T-SC1 reporter activity, % (7.5 μM).
[11] abbreviates: read-out: Enzyme inhibition % ([…]), Table 18, […] compound, read-out: Enzyme inhibition % (2.5 μM).
Setting [12] is: read-out: Enzyme inhibition % ([…]), Table 18, […] compound, read-out: Enzyme inhibition % (7.5 μM).
Setting [13] is: read-out: Enzyme inhibition % ([…]), recombinant 15-PGDH, […] compound, read-out: Enzyme inhibition % (2.5 μM).
Setting [14] is: read-out: Enzyme inhibition % ([…]), recombinant 15-PGDH, […] compound, read-out: Enzyme inhibition % (7.5 μM).
The mark [15] stands for this setting: read-out: V9M reporter activity ([…]), Table 17, % induction over basal level, read-out: V9M reporter activity (2.5 μM).
The mark [16] stands for this setting: read-out: V9M reporter activity ([…]), Table 17, read-out: V9M reporter activity (7.5 μM).
[17] abbreviates: read-out: V503 reporter activity ([…]), Table 17, read-out: V503 reporter activity (2.5 μM).
[18] abbreviates: read-out: V503 reporter activity ([…]), Table 17, read-out: V503 reporter activity (7.5 μM).
Setting [19] is: read-out: 1S174T reporter activity ([…]), Table 17, […], read-out: 1S174T reporter activity (7.5 μM).
The mark [20] stands for this setting: read-out: LS174T reporter activity ([…]), Table 17, […], read-out: LS174T reporter activity (2.5 μM).

Where two headings read alike, the source gives them in different places.

Sequence of recombinant 15-PGDH protein (P15428 whole entry, the tested form may be a part): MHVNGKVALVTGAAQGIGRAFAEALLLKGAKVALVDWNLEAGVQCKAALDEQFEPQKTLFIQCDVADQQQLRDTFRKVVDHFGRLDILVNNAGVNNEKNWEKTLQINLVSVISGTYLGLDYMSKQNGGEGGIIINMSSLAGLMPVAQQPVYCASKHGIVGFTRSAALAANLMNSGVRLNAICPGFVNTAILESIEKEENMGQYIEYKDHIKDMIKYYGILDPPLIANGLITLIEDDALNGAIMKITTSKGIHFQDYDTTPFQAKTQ

Broadly, the inhibition is the drop in the measured response relative to a control, in per cent. As for `COc1ccc(C)cc1N(CC(=O)Nc1cccnc1)S(=O)(=O)c1ccccc1` [526206-05-3], the percent reporter induction over basal at […] in experiment [1] was 114%. The activation at […] was 23.1% in experiment [1] (setting [6]); 110% in experiment [2] (setting [7]); 198% in experiment [2] (setting [8]); 68.5% in experiment [3] (setting [9]); 146% in experiment [3] (setting [10]). Further, the inhibition at […] in experiment [4] (setting [11]) came to 42%; in experiment [4] (setting [12]) it was 70.2%.

Consider `COc1ccc(N(CC(=O)Nc2cccnc2)S(=O)(=O)c2ccccc2)cc1C` [592469-85-7], for which the percent reporter induction over basal at […] in experiment [1] is 18.5%. Moreover, the activation at […] in experiment [1] (setting [6]) is -9.74%; in experiment [2] (setting [7]), 10.2%; in experiment [2] (setting [8]), 5.3%; in experiment [3] (setting [9]), 3.77%; in experiment [3] (setting [10]) it was 14%. Further, the inhibition at […] in experiment [4] (setting [11]) amounted to 6.23%; in experiment [4] (setting [12]) it was 17.2%.

As for `COc1ccc(S(=O)(=O)N(CC(=O)Nc2cccnc2)c2cc(OC)ccc2OC)cc1` [SW202940], the “Induction of 15-PGDH-luciferase reporter, in words” value (from here on “Induction … in words”) in experiment [5] was “active in inducing 15-PGDH-luciferase reporter activity”. For the same compound, the inhibition at […] came to 24.3% in experiment [4] (setting [13]) and 63.3% in experiment [4] (setting [14]).

Turning to `COc1ccc(OC)c(N(CC(=O)Nc2cc(C)no2)S(=O)(=O)c2ccccc2)c1` [SW203704], in experiment [5], the “Induction … in words” value was “active in inducing the 15-PGDH-luciferase reporter”. Also, the values for the inhibition at […] in experiment [4] (setting [13]) and in experiment [4] (setting [14]) were 4.19% and 7.26%, respectively.

Take `C[S+]([O-])c1sc2nc(-c3cccs3)cc(-c3ccccc3)c2c1N` (centres unmarked) [SW208079, 2-(methylsulfinyl)-4-phenyl-6-(thiophen-2-yl)thieno[2,3-b]pyridin-3-amine]: in experiment [5], the “Induction … in words” value is listed as “marked loss of activity in inducing the cell line reporters”.

Take `COc1ccc(N(CC(=O)Nc2ccccc2Br)S(=O)(=O)c2ccc(NC(C)=O)cc2)cc1` [compound 771064]: the activation at […] is 43.3% in experiment [1] (setting [15]); -19.2% in experiment [1] (setting [16]); -13.8% in experiment [2] (setting [17]); -24.8% in experiment [2] (setting [18]); -29.6% in experiment [3] (setting [19]); -2.11% in experiment [3] (setting [20]).

With `COc1ccc(S(=O)(=O)N(CC(=O)Nc2ccccc2Br)c2cc(Cl)ccc2OC)cc1OC` [compound 771081], the activation at […] is -14.2% in experiment [1] (setting [15]); 7.58% in experiment [1] (setting [16]); 31.9% in experiment [2] (setting [17]); 51.7% in experiment [2] (setting [18]); 15.4% in experiment [3] (setting [19]); 5.74% in experiment [3] (setting [20]).

Turning to `COc1ccc(S(=O)(=O)N(CC(=O)Nc2cccc(Br)c2)c2cc(Cl)ccc2OC)cc1OC` [compound 771130], the activation at […] in experiment [1] (setting [15]) is 8.67%; in experiment [1] (setting [16]), 5.84%; in experiment [2] (setting [17]) it was -10.2%; in experiment [2] (setting [18]), -3.48%; in experiment [3] (setting [19]) it was -0.48%; in experiment [3] (setting [20]), 8.66%.

In the case of `COc1ccc(S(=O)(=O)N(CC(=O)Nc2ccc(Br)cc2)c2cc(Cl)ccc2OC)cc1OC` [compound 771432], the activation at […] in experiment [1] (setting [15]) is -7.11%; in experiment [1] (setting [16]) it was -3.13%; in experiment [2] (setting [17]) it was 33.7%; in experiment [2] (setting [18]), 42.8%; in experiment [3] (setting [19]) it was 4.24%; in experiment [3] (setting [20]), 3.86%.

For `COc1ccc(S(=O)(=O)N(CC(=O)Nc2cccc(N(C)S(C)(=O)=O)c2)c2cc(Cl)ccc2OC)cc1OC` [compound 924787], the activation at […] is -1.45% in experiment [1] (setting [15]); 18.1% in experiment [1] (setting [16]); 21.9% in experiment [2] (setting [17]); 48% in experiment [2] (setting [18]); 13.1% in experiment [3] (setting [19]); 4.32% in experiment [3] (setting [20]).

For the compound `COc1ccc(N(CC(=O)Nc2ccccc2Br)S(=O)(=O)c2ccccc2[N+](=O)[O-])c(OC)c1` [compound 1002065], the activation at […] in experiment [1] (setting [15]) was 7.38%; in experiment [1] (setting [16]) it was 18.6%; in experiment [2] (setting [17]), 38.1%; in experiment [2] (setting [18]), 52.5%; in experiment [3] (setting [19]) it was 15.2%; in experiment [3] (setting [20]) it was 9.9%.

Values taken from patent publication US10301320B2, “Compositions and methods of modulating 15-PGDH activity” (CASE WESTERN RESERVE UNIVERSITY, priority 2012, dated 2019).
